Entries after “also recorded” stand apart in the source; their conditions may differ.
How the values were obtained:
GNMT knockout mice = test: Prepulse inhibition (PPI) of acoustic startle reflex in drug-treated GNMT knockout mice; assay type: in vivo, mouse
Procedure: The apparatus consisted of two startle chambers (Med Associates, Georgia, Vt.). One mouse selected from the WT control group and the other selected from GNMT deficient group were tested simultaneously. Each mouse was put into the PPI chamber for a 5-min acclimatization period with a […] background noise. Following this period, 10 startle pulses (120 dB, 40 ms duration) were presented with an average inter-trial interval of 15 s. Then, no stimulus (background noise, 68 dB), prepulses alone (72, 76 and 84 dB, 20 ms duration), startle pulses alone, and prepulses followed 80 ms later by startle pulses were presented six times randomly distributed over the next 20 min. […]
In view of the observed deficits in prepulse inhibition (PPI) of the acoustic startle reflex in GNMT knockout mice, we administered clozapine (a […] anti-schizophrenic drug, 1 mg/kg) to the GNMT knockout mice, and evaluated the therapeutic effects on schizophrenia. […]
Another hypothesis of schizophrenia pathology is that neuropsychiatric disorder may be associated with the dysfunction of N-methyl-D-aspartate (NMDA) receptor, a glutamate receptor. […] Therefore, in a further experiment, sarcosine (100 mg/kg) is administered to the GNMT knockout mice, and evaluated its therapeutic effects on schizophrenia.

glycine transporter-1 = molecular target: T1, glycine transporter-1 (Homo sapiens, UniProt P48067); conditions: clinical studies, supplement of sarcosine; cited from earlier work
T1 construct: host or cells: human patients (endogenous transporter)
T1 sequence (P48067 1-706): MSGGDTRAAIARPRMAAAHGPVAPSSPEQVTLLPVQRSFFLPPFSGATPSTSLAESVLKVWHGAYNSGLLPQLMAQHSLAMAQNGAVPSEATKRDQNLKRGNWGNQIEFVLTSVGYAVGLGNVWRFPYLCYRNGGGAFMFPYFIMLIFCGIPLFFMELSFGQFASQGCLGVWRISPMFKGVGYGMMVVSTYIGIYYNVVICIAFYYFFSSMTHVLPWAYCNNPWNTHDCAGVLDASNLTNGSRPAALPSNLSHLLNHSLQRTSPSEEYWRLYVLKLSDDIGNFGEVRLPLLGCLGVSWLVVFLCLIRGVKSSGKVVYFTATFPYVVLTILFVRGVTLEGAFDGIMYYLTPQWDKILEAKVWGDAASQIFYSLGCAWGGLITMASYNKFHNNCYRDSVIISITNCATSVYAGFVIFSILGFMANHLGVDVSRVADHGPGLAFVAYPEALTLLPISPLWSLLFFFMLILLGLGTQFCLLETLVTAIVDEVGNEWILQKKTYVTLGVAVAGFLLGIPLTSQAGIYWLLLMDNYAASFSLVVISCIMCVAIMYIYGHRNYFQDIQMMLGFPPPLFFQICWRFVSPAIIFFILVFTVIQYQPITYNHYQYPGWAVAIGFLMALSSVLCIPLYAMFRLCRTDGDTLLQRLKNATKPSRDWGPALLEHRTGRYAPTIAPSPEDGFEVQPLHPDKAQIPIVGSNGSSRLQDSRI

[1] = phase II clinical trials; cited from earlier work

## CNCC(=O)O [sarcosine]
GNMT knockout mice; sarcosine 100 mg/kg (FIG. 10)
  level of startle amplitude: unaffected
GNMT knockout mice; sarcosine 100 mg/kg, compared with solvent control (FIG. 11)
  percent PPI of ASR: significantly induced PPI; also recorded: significantly ameliorated deficits in prepulse inhibition
Glycine transporter-1
  symptoms of schizophrenia: can improve the symptoms of schizophrenia
[1]
  symptoms of depression: effective to ameliorate symptoms of depression

Reference: patent US8697939B2, “Mouse model for depression, schizophrenia and alzheimer's disease and the use thereof” (National Yang Ming University, priority 2009, dated 2014)
